Data: the NIST ThermoML archive (doi:10.1021/acs.jced.8b00554)

Assay: xn = mol fraction of the nth substance listed
Details: Liquid, Vibrating tube method

CCCCCCCCC [nonane] + CCCO
Details	mass density [kg/m3]
333.15 K, 6020 kPa, x2 = 0.1231	692.22
333.15 K, 6020 kPa, x2 = 0.3229	700.03
333.15 K, 7000 kPa, x2 = 0.2315	697.33
333.15 K, 7010 kPa, x2 = 0.1231	693.22
333.15 K, 7010 kPa, x2 = 0.3229	701.03
333.15 K, 7010 kPa, x2 = 0.4272	706.53
333.15 K, 7010 kPa, x2 = 0.7021	728.53
333.15 K, 7010 kPa, x2 = 0.8941	754.12
333.15 K, 8000 kPa, x2 = 0.3229	702.03
333.15 K, 8010 kPa, x2 = 0.1231	694.22
333.15 K, 8010 kPa, x2 = 0.7021	729.53
333.15 K, 8010 kPa, x2 = 0.8941	755.09
333.15 K, 8020 kPa, x2 = 0.2315	698.33
333.15 K, 8020 kPa, x2 = 0.4272	707.53
333.15 K, 9010 kPa, x2 = 0.2315	699.32
333.15 K, 9010 kPa, x2 = 0.3229	703.05
333.15 K, 9010 kPa, x2 = 0.4272	708.53
333.15 K, 9010 kPa, x2 = 0.7021	730.52
333.15 K, 9010 kPa, x2 = 0.8941	756.05
333.15 K, 9020 kPa, x2 = 0.1231	695.19
333.15 K, 10010 kPa, x2 = 0.1231	696.17
333.15 K, 10010 kPa, x2 = 0.2315	700.3
333.15 K, 10010 kPa, x2 = 0.3229	704.04
333.15 K, 10010 kPa, x2 = 0.4272	709.54
333.15 K, 10020 kPa, x2 = 0.7021	731.49
333.15 K, 10020 kPa, x2 = 0.8941	757
333.15 K, 11010 kPa, x2 = 0.1231	697.14
333.15 K, 11010 kPa, x2 = 0.2315	701.27
333.15 K, 11010 kPa, x2 = 0.3229	705.01
333.15 K, 11010 kPa, x2 = 0.4272	710.52
333.15 K, 11010 kPa, x2 = 0.7021	732.46
333.15 K, 11010 kPa, x2 = 0.8941	757.95
333.15 K, 12000 kPa, x2 = 0.1231	698.08
333.15 K, 12000 kPa, x2 = 0.2315	702.25
333.15 K, 12000 kPa, x2 = 0.3229	705.98
333.15 K, 12010 kPa, x2 = 0.4272	711.48
333.15 K, 12010 kPa, x2 = 0.8941	758.88
333.15 K, 12020 kPa, x2 = 0.7021	733.42
333.15 K, 13000 kPa, x2 = 0.3229	706.94
333.15 K, 13000 kPa, x2 = 0.8941	759.79
333.15 K, 13010 kPa, x2 = 0.1231	699.03
333.15 K, 13010 kPa, x2 = 0.4272	712.44
333.15 K, 13010 kPa, x2 = 0.7021	734.37
333.15 K, 13020 kPa, x2 = 0.2315	703.18
333.15 K, 14000 kPa, x2 = 0.3229	707.87
333.15 K, 14010 kPa, x2 = 0.1231	699.96
333.15 K, 14010 kPa, x2 = 0.2315	704.11
333.15 K, 14010 kPa, x2 = 0.4272	713.39
333.15 K, 14010 kPa, x2 = 0.7021	735.32
333.15 K, 14010 kPa, x2 = 0.8941	760.71
333.15 K, 15000 kPa, x2 = 0.2315	705.02
333.15 K, 15010 kPa, x2 = 0.1231	700.86
333.15 K, 15010 kPa, x2 = 0.3229	708.79
333.15 K, 15010 kPa, x2 = 0.4272	714.3
333.15 K, 15010 kPa, x2 = 0.7021	736.23
333.15 K, 15010 kPa, x2 = 0.8941	761.6
333.15 K, 16000 kPa, x2 = 0.4272	715.23
333.15 K, 16000 kPa, x2 = 0.8941	762.49
333.15 K, 16010 kPa, x2 = 0.1231	701.75
333.15 K, 16010 kPa, x2 = 0.2315	705.94
333.15 K, 16010 kPa, x2 = 0.3229	709.71
333.15 K, 16020 kPa, x2 = 0.7021	737.15
333.15 K, 17000 kPa, x2 = 0.3229	710.61
333.15 K, 17010 kPa, x2 = 0.7021	738.03
333.15 K, 17010 kPa, x2 = 0.8941	763.38
333.15 K, 17020 kPa, x2 = 0.1231	702.63
333.15 K, 17020 kPa, x2 = 0.2315	706.85
333.15 K, 17020 kPa, x2 = 0.4272	716.11
333.15 K, 18000 kPa, x2 = 0.3229	711.48
333.15 K, 18000 kPa, x2 = 0.4272	717
333.15 K, 18000 kPa, x2 = 0.8941	764.23
333.15 K, 18010 kPa, x2 = 0.1231	703.52
333.15 K, 18010 kPa, x2 = 0.2315	707.71
333.15 K, 18010 kPa, x2 = 0.7021	738.91
333.15 K, 19000 kPa, x2 = 0.1231	704.35
333.15 K, 19000 kPa, x2 = 0.2315	708.54
333.15 K, 19000 kPa, x2 = 0.8941	765.08
333.15 K, 19010 kPa, x2 = 0.3229	712.34
333.15 K, 19010 kPa, x2 = 0.4272	717.85
333.15 K, 19010 kPa, x2 = 0.7021	739.77
333.15 K, 20000 kPa, x2 = 0.2315	709.37
333.15 K, 20000 kPa, x2 = 0.8941	765.89
333.15 K, 20010 kPa, x2 = 0.7021	740.63
333.15 K, 20020 kPa, x2 = 0.1231	705.18
333.15 K, 20020 kPa, x2 = 0.3229	713.17
333.15 K, 20020 kPa, x2 = 0.4272	718.7
343.15 K, 100 kPa, x2 = 0.1231	677.91
343.15 K, 100 kPa, x2 = 0.2315	680.7
343.15 K, 100 kPa, x2 = 0.3229	683.88
343.15 K, 100 kPa, x2 = 0.4272	688.89
343.15 K, 100 kPa, x2 = 0.7021	710.15
343.15 K, 100 kPa, x2 = 0.8941	735.96
343.15 K, 1000 kPa, x2 = 0.2315	681.31
